Holding throughout (experiment): relative viability (nuclei count vs DMSO), 5 days (fraction); higher = more cells survive
Compound in assay [1]: CC1=CC(=C(N1C2=CC=C(C=C2)Cl)C)C(=O)CN3CCCCC3 [IU1-47] + CS(=O)(=O)N1CCN(Cc2cc3nc(-c4cccc5[nH]ncc45)nc(N4CCOCC4)c3s2)CC1 [Pictilisib] (partner 1 µM)
Put shortly: (§1)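 Nuclei were stained with Hoechst during a one-step fixation (final 0.05% Triton X-100, 1% formaldehyde, 1 ug/ml Hoechst) carried out 5 days after dosing, then counted on 4× images. The cells, lung cancer lines in 1536-well plates, had been dosed by pin tool the day after seeding with one drug alone or a fixed anchor-drug dose plus five library-drug doses (not always all listed) in √10 steps. Relative viability is the nuclei count in treated wells divided by that in vehicle wells, and each value is the median of duplicate plates.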

Compound in assay [2]: Cc1nc(C(=O)NCC(=O)O)c(O)c2ccc(Oc3ccccc3)cc12 [FG-4592] + COc1cc2c(Oc3ccc(NC(=O)C4(C(=O)Nc5ccc(F)cc5)CC4)cc3F)ccnc2cc1OCCCN1CCOCC1 [Foretinib] (partner 0.25 µM)
Put shortly:
as §1

Compound in assay [3]: Cc1nc(C(=O)NCC(=O)O)c(O)c2ccc(Oc3ccccc3)cc12 [FG-4592] + CS(=O)(=O)CCNCc1ccc(-c2ccc3ncnc(Nc4ccc(OCc5cccc(F)c5)c(Cl)c4)c3c2)o1 [Lapatinib] (partner 2 µM)
An outline of the steps: as §1

Compound in assay [4]: Cc1nc(C(=O)NCC(=O)O)c(O)c2ccc(Oc3ccccc3)cc12 [FG-4592] + O=C(CCCCCCC(=O)Nc1ccccc1)NO [Vorinostat] (partner 1 µM)
Put shortly: as §1

On to UMC-11, for which the relative viability in assay [1] (first compound 0.08 µM) turned out to be 0.678; in assay [1] (first compound 0.253 µM), 0.75; in assay [1] (first compound 0.8 µM) it was 0.868; in assay [1] (first compound 2.53 µM) it was 1.01; in assay [1] (first compound 8 µM) it was 0.743; in assay [2] (first compound 0.08 µM), 1.06. The relative viability is 1.03 in assay [2] (first compound 0.253 µM); 0.918 in assay [2] (first compound 0.8 µM); 1.03 in assay [2] (first compound 2.53 µM); 0.671 in assay [2] (first compound 8 µM); 0.948 in assay [3] (first compound 0.08 µM); 0.955 in assay [3] (first compound 0.253 µM). Also, the relative viability came to 0.8 in assay [3] (first compound 0.8 µM); 0.936 in assay [3] (first compound 2.53 µM); 0.822 in assay [3] (first compound 8 µM); 0.363 in assay [4] (first compound 0.08 µM); 0.333 in assay [4] (first compound 0.253 µM); 0.361 in assay [4] (first compound 0.8 µM). The relative viability in assay [4] (first compound 2.53 µM) is 0.511; in assay [4] (first compound 8 µM) it was 0.332.

The record behind these values is the supplement of paper PMC10307832.
